Assay [1] deals with KOPTK1. The assay can be described thus: Anti-tumor activity against human KOPTK1 cells xenografted in invivo animal model assessed as reduction in tumor growth at 10 mg/kg, ip relative to control. The assay is classed as functional. The conditions noted are these: read-out: TGI.
Assay [2] relates to KOPTK1. The assay can be described thus: Cytotoxicity against human KOPTK1 cells assessed as reduction in cell viability. It counts as functional, cell-based.
For assay [3], the target named is T1, Cyclin-dependent kinase 7 (Homo sapiens, UniProt P50613). The assay can be described thus: Inhibition of CDK7 (unknown origin) after 4 hrs.
T1 sequence (P50613 whole entry): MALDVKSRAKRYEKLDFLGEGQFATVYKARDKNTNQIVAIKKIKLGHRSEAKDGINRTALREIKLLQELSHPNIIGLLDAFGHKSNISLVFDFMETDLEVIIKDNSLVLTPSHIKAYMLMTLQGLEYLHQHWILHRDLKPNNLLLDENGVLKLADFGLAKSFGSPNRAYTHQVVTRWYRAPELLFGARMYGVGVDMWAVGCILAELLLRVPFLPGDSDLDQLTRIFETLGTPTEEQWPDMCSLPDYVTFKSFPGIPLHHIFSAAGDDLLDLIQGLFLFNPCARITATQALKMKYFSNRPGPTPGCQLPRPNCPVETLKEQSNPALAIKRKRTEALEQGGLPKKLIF
The target in assay [4] is T2, Cyclin-dependent kinase 2 (Homo sapiens, UniProt P24941). Kind of assay: Inhibition of CDK2 (unknown origin) after 4 hrs.
Assay [5] has as its target T3, Cyclin-dependent kinase 9 (Homo sapiens, UniProt P50750). Kind of assay: Inhibition of CDK9 (unknown origin) after 4 hrs.
In assay [6] the target is T4, Cyclin-dependent kinase 4 (Homo sapiens, UniProt P11802). The assay can be described thus: Inhibition of CDK4 (unknown origin) by luciferase reporter gene assay. (A reporter such as luciferase makes a cellular process visible.)
T4 sequence (P11802 whole entry): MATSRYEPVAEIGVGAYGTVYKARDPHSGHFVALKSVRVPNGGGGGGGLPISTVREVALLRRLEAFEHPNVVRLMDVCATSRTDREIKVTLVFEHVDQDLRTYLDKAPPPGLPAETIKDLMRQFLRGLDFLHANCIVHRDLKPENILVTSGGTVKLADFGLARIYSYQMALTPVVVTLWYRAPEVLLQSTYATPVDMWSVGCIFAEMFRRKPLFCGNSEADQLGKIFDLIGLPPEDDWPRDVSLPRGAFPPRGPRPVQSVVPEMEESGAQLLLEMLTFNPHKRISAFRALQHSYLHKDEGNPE
Assay [7] deals with T5, Cyclin-dependent kinase 5 (Homo sapiens, UniProt Q00535). The assay can be described thus: Inhibition of CDK5 (unknown origin) by luciferase reporter gene assay.
T5 sequence (Q00535 whole entry): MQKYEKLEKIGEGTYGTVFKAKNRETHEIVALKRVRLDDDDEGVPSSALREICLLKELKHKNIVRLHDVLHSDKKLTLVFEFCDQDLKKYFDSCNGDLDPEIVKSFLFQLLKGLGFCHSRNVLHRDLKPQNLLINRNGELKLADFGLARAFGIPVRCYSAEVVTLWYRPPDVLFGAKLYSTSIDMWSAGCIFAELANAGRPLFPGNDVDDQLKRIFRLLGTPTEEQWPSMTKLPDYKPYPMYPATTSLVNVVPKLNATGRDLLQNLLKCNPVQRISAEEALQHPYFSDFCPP
Assay [8] relates to MDA-MB-231. The assay can be described thus: Cytotoxicity against human MDA-MB-231 cells assessed as reduction in cell viability. The assay is classed as functional, cell-based.
The target of assay [9] is T6, Cyclin-dependent kinase 1 (Homo sapiens, UniProt P06493). Kind of assay: Inhibition of CDK1 (unknown origin) by luciferase reporter gene assay.
T6 sequence (P06493 whole entry): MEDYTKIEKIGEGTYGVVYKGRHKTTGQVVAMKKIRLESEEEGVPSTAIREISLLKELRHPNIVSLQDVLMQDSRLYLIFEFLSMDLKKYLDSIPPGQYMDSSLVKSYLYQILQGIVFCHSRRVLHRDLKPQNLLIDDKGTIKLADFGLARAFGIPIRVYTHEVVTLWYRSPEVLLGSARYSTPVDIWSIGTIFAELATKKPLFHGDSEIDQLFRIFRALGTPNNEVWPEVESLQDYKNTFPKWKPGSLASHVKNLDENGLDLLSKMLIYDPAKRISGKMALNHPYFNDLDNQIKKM
Assay [10] concerns MDA-MB-468. Kind of assay: Cytotoxicity against human MDA-MB-468 cells assessed as reduction in cell viability. The assay is classed as functional, cell-based.
The target of assay [11] is T7, Cyclin-dependent kinase 6 (Homo sapiens, UniProt Q00534). The assay can be described thus: Inhibition of CDK6 (unknown origin) by luciferase reporter gene assay.
T7 sequence (Q00534 whole entry): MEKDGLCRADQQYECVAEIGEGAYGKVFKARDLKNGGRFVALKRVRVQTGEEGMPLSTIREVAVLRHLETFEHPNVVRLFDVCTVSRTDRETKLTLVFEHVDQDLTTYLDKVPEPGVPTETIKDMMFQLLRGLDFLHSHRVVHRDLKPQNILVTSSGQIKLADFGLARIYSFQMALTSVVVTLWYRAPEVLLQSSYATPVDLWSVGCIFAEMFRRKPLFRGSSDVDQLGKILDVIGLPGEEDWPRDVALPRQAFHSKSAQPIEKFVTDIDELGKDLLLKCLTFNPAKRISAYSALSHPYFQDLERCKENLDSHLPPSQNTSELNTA
Assay [12] concerns the target T1, Cyclin-dependent kinase 7. Kind of assay: Inhibition of CDK7 (unknown origin).
For assay [13], the target named is T3, Cyclin-dependent kinase 9.
For assay [14], the target named is T2, Cyclin-dependent kinase 2.
Assay [15] addresses CDK7/Cyclin H/MNAT1 (Homo sapiens, UniProt P50613). Kind of assay: Inhibition of CDK7/CycH/MAT1 (unknown origin) by luciferase reporter gene assay. The assay is classed as protein-complex assay.
The target of assay [16] is T4, Cyclin-dependent kinase 4. The assay can be described thus: Inhibition of CDK4 (unknown origin).
Assay [17] deals with T6, Cyclin-dependent kinase 1.
Assay [18] has as its target T7, Cyclin-dependent kinase 6. The assay can be described thus: Inhibition of CDK6 (unknown origin).
Assay [19] has as its system BGC-823. Kind of assay: Anti-tumor activity against human BGC823 cells xenografted in invivo animal model assessed as reduction in tumor growth at 10 mg/kg, ip relative to control. The assay is classed as functional. The note with it: BGC-823, ip, read-out: TGI. (In general: Xenograft models place foreign cells or tissue in a host animal.)
Assay [20] relates to MGC-803. Kind of assay: Cytotoxicity against human MGC803 cells assessed as reduction in cell viability. The assay is classed as functional, cell-based.
The test system of assay [21] is AGS. Kind of assay: Cytotoxicity against human AGS cells assessed as reduction in cell viability. It counts as functional, cell-based.
Assay [22] deals with T5, Cyclin-dependent kinase 5.
Assay [23] deals with Cyclin-dependent kinase 2/cyclin E1 (Homo sapiens, UniProt P24941). The assay can be described thus: Inhibition of CDK2/cycE1 (unknown origin) by luciferase reporter gene assay. The assay is classed as protein-complex assay.
In assay [24] the test system is Jurkat. Kind of assay: Cytotoxicity against human Jurkat cells assessed as reduction in cell viability. It counts as functional, cell-based.

CDK7/Cyclin H/MNAT1, sequence (P51946 whole entry): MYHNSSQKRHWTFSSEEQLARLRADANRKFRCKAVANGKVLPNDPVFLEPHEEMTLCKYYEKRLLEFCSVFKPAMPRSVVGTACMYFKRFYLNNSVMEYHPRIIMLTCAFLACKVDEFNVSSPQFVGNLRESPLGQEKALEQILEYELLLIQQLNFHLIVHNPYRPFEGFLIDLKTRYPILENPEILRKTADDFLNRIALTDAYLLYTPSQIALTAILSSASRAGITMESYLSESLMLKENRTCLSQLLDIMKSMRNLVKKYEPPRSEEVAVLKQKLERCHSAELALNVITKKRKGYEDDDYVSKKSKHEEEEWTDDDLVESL
CDK7/Cyclin H/MNAT1, sequence (P50613 whole entry): as the sequence (P50613 whole entry) above
CDK7/Cyclin H/MNAT1, sequence (P51948 whole entry, further chain): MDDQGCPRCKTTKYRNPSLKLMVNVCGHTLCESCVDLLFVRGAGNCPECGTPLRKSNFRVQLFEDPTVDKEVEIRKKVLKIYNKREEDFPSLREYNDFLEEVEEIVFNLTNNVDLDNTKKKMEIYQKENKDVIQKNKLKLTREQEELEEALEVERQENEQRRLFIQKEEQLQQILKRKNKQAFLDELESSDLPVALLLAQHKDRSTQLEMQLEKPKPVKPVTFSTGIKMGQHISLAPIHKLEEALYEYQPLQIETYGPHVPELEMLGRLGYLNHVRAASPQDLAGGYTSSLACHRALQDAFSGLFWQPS
T3 sequence (P50750 whole entry): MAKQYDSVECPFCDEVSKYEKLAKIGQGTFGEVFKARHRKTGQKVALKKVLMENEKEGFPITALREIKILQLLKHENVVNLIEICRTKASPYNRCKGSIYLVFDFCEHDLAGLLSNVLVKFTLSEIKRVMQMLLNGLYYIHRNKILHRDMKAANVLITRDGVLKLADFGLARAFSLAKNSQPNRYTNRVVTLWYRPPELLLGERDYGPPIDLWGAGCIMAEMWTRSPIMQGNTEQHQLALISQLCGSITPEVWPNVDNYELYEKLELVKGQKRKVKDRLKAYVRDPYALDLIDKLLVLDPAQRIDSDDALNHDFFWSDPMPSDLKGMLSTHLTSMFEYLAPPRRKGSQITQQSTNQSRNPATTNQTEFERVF

The IC50 is the midpoint of a concentration-inhibition curve. For the compound `CN(C)C/C=C/C(=O)Nc1ccc(C(=O)Nc2cccc(Nc3ncc(Cl)c(-c4c[nH]c5ccccc45)n3)c2)cc1`, the inhibition in vivo at 10 mg/kg in assay [1] stood at 10%. Besides, the IC50 in [2] is 1 nM.

As for `FC(F)(F)c1cnc(N[C@H]2CCCNC2)nc1-c1n[nH]c2ccccc12`, the IC50 in [3] was < 20 nM; in assay [4], > 200 nM; in [5], 20 to 200 nM.

As for `CC(C)c1cnn2c(NCc3ccccc3)cc(NC[C@@H]3CCNC[C@H]3O)nc12`, the IC50 was 42000 nM in assay [6]; 9000 nM in assay [7]; 1300 nM in assay [8]; 1520 nM in assay [9]; 1500 nM in assay [10]; 32100 nM in [11].

In the case of `Clc1cnc(N[C@@H]2CCCNC2)nc1-c1c[nH]c2ccccc12`, the IC50 was 20 to 200 nM in assay [12], > 200 nM in assay [13] and > 200 nM in assay [14].

Consider `CC(C)c1cnn2c(NCc3ccccc3)cc(NCC3CCNCC3)nc12`, for which it took 310 nM to reach half-maximal inhibition in assay [15] (IC50).

For `CC(C)c1cnn2c(NCc3ccccc3N(C)C)nc(OC3CCN(C)CC3)nc12`, the IC50 was > 10000 nM in assay [16]; < 5 nM in assay [12]; 7450 nM in assay [13]; 3900 nM in assay [14]; > 10000 nM in assay [17]; > 10000 nM in assay [18].

Consider `C=CC(=O)Nc1ccc(C(=O)Nc2n[nH]c3c2CN(C(=O)N[C@H](CN(C)C)c2ccccc2)C3(C)C)cc1`, for which the IC50 in assay [12] was > 100 nM.

For the compound `Clc1cnc(N[C@H]2CCCNC2)nc1-c1c[nH]c2ccccc12`, the values for the IC50 in assay [12], in assay [13] and in assay [14] were < 20 nM, > 200 nM and > 200 nM, respectively.

Take `CC(C)c1cnn2c(NCc3ccccc3)cc(NC[C@H]3CCCC[C@@H]3O)nc12`: the midpoint of inhibition in [15], the IC50, lay at 687 nM.

With `CN(C)C/C=C/C(=O)Nc1cccc(C(=O)Nc2cccc(Nc3ncc(Cl)c(-c4c[nH]c5ccccc45)n3)c2)c1`, the inhibition in vivo at 10 mg/kg in assay [19] is 50%. Also, the IC50 was determined as 27 nM in assay [12]; 134 nM in assay [13]; 740 nM in assay [20]; 190 nM in assay [21]; 222 nM in assay [22]; 96.9 nM in [14]. Also, in assay [17], the IC50 turned out to be 13.9 nM.

Take `CN(C)CCCC(=O)Nc1ccc(C(=O)Nc2cccc(Nc3ncc(Cl)c(-c4c[nH]c5ccccc45)n3)c2)cc1`: the IC50 in assay [12] was 194 nM.

For `C=CC(=O)Nc1ccc(C(=O)Nc2ccc(Nc3n[nH]c4c3CN(C(=O)N[C@H](CN(C)C)c3ccccc3)C4(C)C)cc2)cc1`, in assay [12], the IC50 is < 100 nM.

For `CC(C)c1cnn2c(NCc3ccccc3)cc(NC[C@]3(O)CCNC[C@H]3O)nc12` (racemic), 2030 nM corresponded to half-maximal inhibition in assay [23] (IC50).

With `CC(C)c1cnn2c(NCc3cccc4c3cnn4C)nc(OC3CCCNC3)nc12` (stereo unspecified), the IC50 was < 5 nM in [12], < 50 nM in [13] and < 50 nM in assay [14].

On to `CC(C)c1cnn2c(NCc3ccccc3-n3cccn3)nc(OC3CCCNC3)nc12` (stereo unspecified), for which the IC50 is > 10000 nM in [16]; 0.13 nM in assay [12]; 1710 nM in [13]; 6.4 nM in assay [14]; 53 nM in [17]; > 10000 nM in assay [18].

Take `C=CC(=O)Nc1ccc(C(=O)Nc2cccc(Nc3n[nH]c4c3CN(C(=O)N[C@H](CN(C)C)c3ccccc3)C4(C)C)c2)cc1`: the results for the IC50 in assay [12] and in [24] were 20 nM and 2 nM, respectively.

`Clc1cnc(NC2CCCCC2)nc1-c1c[nH]c2cccnc12`: the IC50 in [3] was 20 nM; in [5], 20 to 200 nM.

For the compound `CC(C)c1cnn2c(NCc3cccc4[nH]ncc34)nc(OC3CCCNC3)nc12` (stereo unspecified), the IC50 in [12] was < 5 nM; in [13], < 50 nM; in assay [14], < 50 nM.

As for `CC(C)c1cnn2c(NCc3ccccc3)cc(NC[C@]3(CO)CCNC3)nc12`, the half-inhibitory concentration (IC50) stood at 14 nM in assay [15], 41 nM in assay [9] and 1 nM in assay [23].

Values taken from ChEMBL document CHEMBL4402527, “Recent advances in the development of cyclin-dependent kinase 7 inhibitors” (Eur J Med Chem, 2019).
